Laboratory results taken from article PMC6896158, “Enzymatic Characterization of Wild-Type and Mutant Janus Kinase 1” (Cancers, 2019).
Where two headings read alike, the source gives them in different places.

How the values were obtained:
[1] = target: JAK1 constructs (Homo sapiens, UniProt P23458); assay: Thermal shift assay (SYPRO orange); format: binding; settings: all constructs containing a kinase domain
Procedure: To determine whether the V658F mutation affects protein stability we performed thermal shift assays on all the JAK constructs in the presence and absence of various cofactors that bind the kinase domain. SYPRO orange, which fluoresces when bound to hydrophobic residues, was added to a solution of protein and ligand. Fluorescence was measured as the temperature of the solution was increased, with increased fluorescence indicating the unfolding of the protein. The melting temperature (Tm) is represented by the inflection point of the fluorescence curve, with a higher Tm indicating greater thermal stability.
JAKs of 3–5 µg were diluted into the JAK Gel Filtration Buffer with 0.04× SYPRO orange, 4% (v/v) DMSO plus either 20 mM EDTA, 1 mM ATP and 2 mM MgCl2, or 6 µM itacitinib, and with or without 5 µM receptor peptide. The temperature was raised in 1 °C per min steps from 25 °C to 80 °C and fluorescence readings at 530 nm were taken at each interval. Sigmoidal curves were fitted to the fluorescence data to provide Tm values for each experiment.

[2] = target: T1, JAK1 (Homo sapiens, UniProt P23458); assay: Steady-state kinetics, kinase activity assay (KM for ATP and STAT5b peptide); format: biochemical; settings: 6 mM peptide substrate, read-out: KM, app (ATP)
T1 construct: full length, 25-1154; His tag (TEV-cleavable) (N, cleaved yes); made in house; host or cells: Sf21 insect cells (baculovirus)

[3] = target: JAK1 V658F (Homo sapiens, UniProt P23458, V658F); assay: Kinase assay with titration of itacitinib (γ-32P-ATP, STAT5b peptide); format: biochemical; settings: V658F constructs (pseudokinase-kinase, full length); Ki=IC50/(1+S/KM)
Procedure: (§1) To our knowledge, it is unknown whether small-molecule JAK inhibitors bind the wild-type and mutant forms of the enzyme with equal affinity. Therefore, the inhibition constant (Ki) for Itacitinib was determined. JAK1 activity was measured by kinase assay in the presence of increasing concentrations of Itacitinib.
(§2) The 10 µL reaction mix contained 0.5 µL 20× Kinase Assay Buffer, 1 µCi γ-^32P-ATP and varying concentrations of ATP, STAT5b peptide, and inhibitor, as described for each experiment. Reactions were started with the addition of 5 µL JAK solution, with concentration as described for each experiment. After incubation at room temperature for 20–60 min, a 3.5 µL reaction mix was spotted onto P81 phosphocellulose paper (Dr. J. Oakhill, SVIMR. Australia) and the paper was placed into 5% (v/v) H3PO4. Paper was washed 4 × 15 min with 100 mL 5% (v/v) H3PO4, followed by 1 × 1 min with acetone. Paper was dried and exposed to a phosphorimager plate overnight. The plate was scanned using a Typhoon FLA 7000 phosphorimager (GE Life Sciences, Chicago, IL, USA) and the incorporated radioactivity of each spot was quantitated using ImageQuant TL software (GE Life Sciences). The background radioactivity, quantified from an area of the paper without reaction mix, was subtracted from that for the experimental spots. […]

[4] = target: JAK1 (wild type constructs) (Homo sapiens, UniProt P23458); assay: as above; format: biochemical; settings: all wild type constructs (kinase domain, pseudokinase-kinase, full length); Ki=IC50/(1+S/KM)
Procedure: as §1, §2

[5] = target: T2, JAK1 FERM-SH2 domain (Homo sapiens, UniProt P23458); assay: Isothermal titration calorimetry of IFNλR Box1/Box2 peptide binding; settings: peptide of IFNλR Box1 and Box2 motifs (human residues K250 - T299)
T2 construct: FERM-SH2 domains, 25-559; His tag (TEV-cleavable) (N, cleaved yes); made in house; host or cells: Sf21 insect cells (baculovirus)
Description: We considered the possibility that the pseudokinase and kinase domains of JAK may affect the binding of JAK to the cytokine receptor (either directly or allosterically), as well as the possibility that the V658F mutation might exert its oncogenic effect by influencing the interaction of JAK with receptor. […] We performed isothermal titration calorimetry (ITC) to determine the affinity of a peptide representing the IFNλR Box1 and Box2 motifs (human residues K250 - T299). […] However, there was no significant effect on receptor binding between the wild-type and mutant forms of the enzyme.

[6] = system: JAK1 wild-type and V658F; assay: Steady-state kinetics in the presence and absence of IFNλR peptide; format: biochemical, human; settings: 2 µM IFNλR peptide
Procedure: Receptor-binding is an important regulator of the activity of JAK in vivo and may be required in order for the V658F mutation to induce constitutive activity. Although we cannot include full-length receptor constructs in these assays we were able to include a peptide fragment that represents the box1/2 motifs. Therefore, we performed steady-state kinetics using JAK1 wild-type and V658F in the presence and absence of saturating concentrations of the IFNλR peptide.
The 10 µL reaction mix contained 0.5 µL 20× Kinase Assay Buffer, 1 µCi γ-^32P-ATP and varying concentrations of ATP, STAT5b peptide, and inhibitor, as described for each experiment. Reactions were started with the addition of 5 µL JAK solution, with concentration as described for each experiment. After incubation at room temperature for 20–60 min, a 3.5 µL reaction mix was spotted onto P81 phosphocellulose paper (Dr. J. Oakhill, SVIMR. Australia) and the paper was placed into 5% (v/v) H3PO4. […] The plate was scanned using a Typhoon FLA 7000 phosphorimager (GE Life Sciences, Chicago, IL, USA) and the incorporated radioactivity of each spot was quantitated using ImageQuant TL software (GE Life Sciences). The background radioactivity, quantified from an area of the paper without reaction mix, was subtracted from that for the experimental spots.

[7] = target: IFNλR (Homo sapiens) (UniProt Q8IU57); settings: cited from earlier work
[8] = target: T3, full length JAK1 V658F (ΔN25) (human, UniProt P23458 25-1154, V658F); assay: ITC; IFNλR Box1/Box2 peptide binding to purified JAK1 constructs; three independent experiments; conditions not described in the methods; settings: both partners purified
T3 construct: human JAK1, the 'full length' construct, residues 25-1154, with the cancer-linked mutation V658F in the pseudokinase domain; also called FL V658F; JAK1 FL V658F; source: Sf21 insect cells, baculovirus, purified (HisTrap, TEV cleavage, Superdex 200); not shown: His tag, N-terminal, cleaved

[9] = target: T4, full length wild type JAK1 (ΔN25) (human, UniProt P23458 25-1154); assay: as above; settings: both partners purified
T4 construct: human JAK1, the 'full length' construct, residues 25-1154 (the N-terminal residues deleted for expression); The results say the 25 N-terminal residues were deleted, the methods give 25-1154; also called FL WT; JAK1 FL WT; source: Sf21 insect cells, baculovirus, purified (HisTrap, TEV cleavage, Superdex 200); not shown: His tag, N-terminal, cleaved

[10] = target: T5, JAK1 FERM-SH2 domains (human, UniProt P23458 25-559); assay: as above; settings: both partners purified
T5 construct: human JAK1 FERM-SH2 domains, residues 25-559; source: Sf21 insect cells, baculovirus, purified (HisTrap, TEV cleavage, Superdex 200); not shown: His tag, N-terminal, cleaved
T5 sequence (P23458 25-559): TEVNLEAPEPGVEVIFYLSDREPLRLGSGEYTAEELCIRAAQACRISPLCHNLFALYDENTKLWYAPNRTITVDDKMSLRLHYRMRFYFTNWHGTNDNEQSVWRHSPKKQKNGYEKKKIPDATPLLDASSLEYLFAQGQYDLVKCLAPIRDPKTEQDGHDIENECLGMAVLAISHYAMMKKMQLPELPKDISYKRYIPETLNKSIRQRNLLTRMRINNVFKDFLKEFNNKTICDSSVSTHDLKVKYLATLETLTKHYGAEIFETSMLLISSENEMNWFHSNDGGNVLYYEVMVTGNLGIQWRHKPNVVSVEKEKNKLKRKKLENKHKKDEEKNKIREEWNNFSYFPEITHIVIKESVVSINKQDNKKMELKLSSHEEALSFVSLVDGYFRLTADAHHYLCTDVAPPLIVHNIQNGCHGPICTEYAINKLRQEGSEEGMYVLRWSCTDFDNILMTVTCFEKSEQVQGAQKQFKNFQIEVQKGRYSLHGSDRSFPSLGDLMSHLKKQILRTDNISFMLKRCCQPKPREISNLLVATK

JAK1 constructs, sequence (P23458 862-1154 limits assumed): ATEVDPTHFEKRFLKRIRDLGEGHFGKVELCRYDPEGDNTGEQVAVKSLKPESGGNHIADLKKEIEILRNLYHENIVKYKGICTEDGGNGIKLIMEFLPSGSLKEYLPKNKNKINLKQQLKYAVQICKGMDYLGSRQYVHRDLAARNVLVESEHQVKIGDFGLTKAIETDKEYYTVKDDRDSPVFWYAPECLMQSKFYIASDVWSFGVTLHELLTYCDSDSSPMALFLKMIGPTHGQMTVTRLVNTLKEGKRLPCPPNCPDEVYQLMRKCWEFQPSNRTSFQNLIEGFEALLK
T3 sequence (P23458 25-1154 V658F): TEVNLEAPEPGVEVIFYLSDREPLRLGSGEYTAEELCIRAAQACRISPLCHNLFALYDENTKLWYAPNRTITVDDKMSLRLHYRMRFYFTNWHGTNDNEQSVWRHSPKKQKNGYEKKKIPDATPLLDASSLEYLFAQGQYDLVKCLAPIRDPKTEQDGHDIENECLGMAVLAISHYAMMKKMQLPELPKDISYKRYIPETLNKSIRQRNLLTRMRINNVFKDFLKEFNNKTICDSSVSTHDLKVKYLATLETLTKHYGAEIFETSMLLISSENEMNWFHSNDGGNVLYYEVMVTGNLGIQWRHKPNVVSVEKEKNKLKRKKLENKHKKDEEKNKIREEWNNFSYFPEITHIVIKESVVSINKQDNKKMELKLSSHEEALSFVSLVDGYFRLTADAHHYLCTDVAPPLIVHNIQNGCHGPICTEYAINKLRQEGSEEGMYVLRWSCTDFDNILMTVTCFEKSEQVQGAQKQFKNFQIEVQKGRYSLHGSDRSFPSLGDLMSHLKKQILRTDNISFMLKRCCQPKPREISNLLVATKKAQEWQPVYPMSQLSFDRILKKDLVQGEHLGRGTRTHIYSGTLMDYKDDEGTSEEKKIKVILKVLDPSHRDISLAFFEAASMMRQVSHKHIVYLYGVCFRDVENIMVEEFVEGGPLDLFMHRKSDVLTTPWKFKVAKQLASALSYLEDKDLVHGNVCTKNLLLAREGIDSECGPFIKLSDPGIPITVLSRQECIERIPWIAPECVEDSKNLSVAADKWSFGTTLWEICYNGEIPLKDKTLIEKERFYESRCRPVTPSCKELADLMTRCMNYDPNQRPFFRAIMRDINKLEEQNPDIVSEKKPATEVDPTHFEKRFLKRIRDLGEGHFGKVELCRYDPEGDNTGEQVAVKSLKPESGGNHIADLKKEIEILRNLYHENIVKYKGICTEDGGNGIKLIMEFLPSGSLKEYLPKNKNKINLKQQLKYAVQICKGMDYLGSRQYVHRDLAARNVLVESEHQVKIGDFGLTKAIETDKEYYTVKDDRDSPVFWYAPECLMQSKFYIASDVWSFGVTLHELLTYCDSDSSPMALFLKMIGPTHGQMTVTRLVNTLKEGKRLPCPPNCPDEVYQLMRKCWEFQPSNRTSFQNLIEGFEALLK
JAK1 V658F, sequence (P23458 25-1154 V658F): as above
JAK1 wild-type and V658F, sequence (P23458 25-559 limits assumed, stated change not applied): as the sequence (P23458 25-559) above
T2 sequence (P23458 25-559): as above
IFNλR (Homo sapiens), sequence (Q8IU57 21-520): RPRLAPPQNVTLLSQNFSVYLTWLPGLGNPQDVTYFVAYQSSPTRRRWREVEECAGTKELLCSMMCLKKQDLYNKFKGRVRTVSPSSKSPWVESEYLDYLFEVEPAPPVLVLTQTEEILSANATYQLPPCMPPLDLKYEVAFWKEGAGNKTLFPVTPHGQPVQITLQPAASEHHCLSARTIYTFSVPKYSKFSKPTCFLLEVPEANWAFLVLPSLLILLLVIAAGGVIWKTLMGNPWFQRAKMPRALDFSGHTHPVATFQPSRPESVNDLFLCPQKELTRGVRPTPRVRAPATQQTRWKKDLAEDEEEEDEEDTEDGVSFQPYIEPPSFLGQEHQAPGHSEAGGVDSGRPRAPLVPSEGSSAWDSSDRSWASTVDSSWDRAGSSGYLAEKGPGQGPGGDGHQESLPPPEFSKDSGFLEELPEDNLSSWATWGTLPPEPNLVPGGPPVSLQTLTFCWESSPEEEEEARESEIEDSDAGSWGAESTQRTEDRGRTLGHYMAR
JAK1 (wild type constructs), sequence (P23458 862-1154 limits assumed): as the sequence (P23458 862-1154 limits assumed) above
T4 sequence (P23458 25-1154, stated change not applied): as the sequence (P23458 25-1154 V658F) above, with F634V counted along it

For `Nc1ncnc2c1ncn2[C@@H]1O[C@H](COP(=O)(O)OP(=O)(O)OP(=O)(O)O)[C@@H](O)[C@H]1O` [ATP], the Tm change ([1]; 1 mM ATP and 2 mM MgCl2, compared to EDTA) was “increased Tm”, the Km ([2]; full-length enzyme) was 25 µM and the Km ([2]; kinase domain alone) was 175 µM.

With `N#CCC1(n2cc(-c3ncnc4[nH]ccc34)cn2)CN(C2CCN(C(=O)c3ccnc(C(F)(F)F)c3F)CC2)C1` [itacitinib] the Ki [3] was 0.5 to 2 nM, the Ki [4] was 0.5 to 2 nM and the Tm change ([1]; 6 µM itacitinib, compared to ATP/Mg2+) was “further Tm increase”.

In the case of “IFNλR peptide: peptide representing the IFNλR Box1 and Box2 motifs (human residues K250 - T299) (KTLMGNPWFQRAKMPRALDFSGHTHPVATFQPSRPESVNDLFLCPQKELT)”, the “affinity (ITC)” value [5] is reported as “near-identical affinity to that previously reported” and the “effect on ATP KM or turnover rate” value [6] is reported as “no significant differences”.

In the case of JAK1 FERM-SH2 (from UniProt P23458), the Kd [7] is listed as 71 nM.

B1: peptide representing the IFNλR Box1 and Box2 motifs (human residues K250 - T299) (peptide, UniProt Q8IU57 250-299, looked up)
peptide: KTLMGNPWFQRAKMPRALDFSGHTHPVATFQPSRPESVNDLFLCPQKELT
notes: human interferon-lambda receptor (IFNλR), intracellular Box1 and Box2 motifs, residues K250-T299; also called IFNλR peptide; interferon lambda box1-box2 peptide
B1: binds [8]; binds [9]; binds [10].
